Test results taken from ChEMBL document CHEMBL5233223, “Dammarane-type leads panaxadiol and protopanaxadiol for drug discovery: Biological activity and structural modification” (Eur J Med Chem, 2020).
In brackets after ≈: the same amount, converted by molar mass.

Columns and labels:
HCT-116 [1] = experiment: Antiproliferative activity against human HCT-116 cells at 30 uM incubated for 48 hrs by MTS assay relative to control; assay type: functional
HCT-116 [2] = experiment: Antiproliferative activity against human HCT-116 cells at 10 uM incubated for 48 hrs in presence of PPD by MTS assay relative to control; assay type: functional
HCT-116 [3] = experiment: Antiproliferative activity against human HCT-116 cells at 10 uM incubated for 48 hrs by MTS assay relative to control; assay type: functional
HCT-116 [4] = experiment: Antiproliferative activity against human HCT-116 cells at 30 uM incubated for 48 hrs in presence of PPD by MTS assay relative to control; assay type: functional
HCT-116 [5] = experiment: Induction of apoptosis in human HCT-116 cells at 30 uM by annexin V-FITC/propidium iodide staining based flow cytometry analysis relative to control; assay type: functional
HCT-116 [6] = experiment: Antiproliferative activity against human HCT-116 cells at 20 uM incubated for 48 hrs by MTS assay relative to control; assay type: functional
HCT-116 [7] = experiment: Antiproliferative activity against human HCT-116 cells at 20 uM incubated for 48 hrs in presence of PPD by MTS assay relative to control; assay type: functional
HCT-116 [8] = experiment: Induction of apoptosis in human HCT-116 cells at 30 uM in presence of PPD by annexin V-FITC/propidium iodide staining based flow cytometry analysis relative to control; assay type: functional
[9] = target: 11-beta-hydroxysteroid dehydrogenase 1 (Homo sapiens, UniProt P28845); experiment: Inhibition of human 11beta-HSD1
HepG2 2.2.15 = experiment: Antiproliferative activity against human HepG2.2.15 cells assessed as cell growth inhibition; assay type: functional, cell-based
HCT-116 [10] = experiment: Induction of apoptosis in human HCT-116 cells at 10 uM relative to control; assay type: functional
HCT-116 [11] = experiment: Antiproliferative activity against human HCT-116 cells assessed as cell growth inhibition in presence of irinotecan; assay type: functional, cell-based
HCT-116 [12] = experiment: Induction of apoptosis in human HCT-116 cells at 20 uM in presence of EGCG at 30 uM relative to control; assay type: functional
HCT-116 [13] = experiment: Induction of apoptosis in human HCT-116 cells at 20 uM relative to control; assay type: functional
HCT-116 [14] = experiment: Induction of apoptosis in human HCT-116 cells at 20 uM in presence of EGCG at 10 uM relative to control; assay type: functional
HCT-116 [15] = experiment: Induction of apoptosis in human HCT-116 cells at 10 uM in presence of EGCG at 30 uM relative to control; assay type: functional
HCT-116 [16] = experiment: Antiproliferative activity against human HCT-116 cells assessed as cell growth inhibition; assay type: functional, cell-based
SW480 [17] = experiment: Antiproliferative activity against human SW480 cells assessed as cell growth inhibition; assay type: functional, cell-based
HCT-116 [18] = experiment: Induction of apoptosis in human HCT-116 cells at 10 uM in presence of EGCG at 20 uM relative to control; assay type: functional
SW480 [19] = experiment: Antiproliferative activity against human SW480 cells assessed as cell growth inhibition in presence of irinotecan; assay type: functional, cell-based
HCT-116 [20] = experiment: Induction of apoptosis in human HCT-116 cells at 20 uM in presence of EGCG at 20 uM relative to control; assay type: functional
HCT-116 [21] = experiment: Induction of apoptosis in human HCT-116 cells at 10 uM in presence of EGCG at 10 uM relative to control; assay type: functional
Staphylococcus aureus = experiment: Antimicrobial activity against Staphylococcus aureus USA300 assessed as bacterial growth inhibition; assay type: functional
Bacillus subtilis = experiment: Antimicrobial activity against Bacillus subtilis assessed as bacterial growth inhibition; assay type: functional
PC-3 = experiment: Antiproliferative activity against human PC-3 cells assessed as cell growth inhibition; assay type: functional, cell-based
MCF7 = experiment: Antiproliferative activity against human MCF7 cells assessed as cell growth inhibition; assay type: functional, cell-based
LNCaP = experiment: Antiproliferative activity against human LNCAP cells assessed as cell growth inhibition; assay type: functional, cell-based
[22] = target: 11-beta-hydroxysteroid dehydrogenase 1 (Mus musculus, UniProt P50172); experiment: Inhibition of mouse 11beta-HSD1
Chain of 11-beta-hydroxysteroid dehydrogenase 1 (Mus musculus, UniProt P50172) (P50172 whole entry): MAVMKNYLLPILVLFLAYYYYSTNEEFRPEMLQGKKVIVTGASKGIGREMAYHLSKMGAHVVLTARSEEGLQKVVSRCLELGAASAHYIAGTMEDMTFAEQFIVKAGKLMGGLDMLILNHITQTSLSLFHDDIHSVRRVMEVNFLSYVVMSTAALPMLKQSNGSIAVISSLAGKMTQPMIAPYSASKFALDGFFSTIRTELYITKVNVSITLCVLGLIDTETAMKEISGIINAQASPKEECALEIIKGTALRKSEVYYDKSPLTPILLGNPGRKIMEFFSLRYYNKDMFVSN

Chain of 11-beta-hydroxysteroid dehydrogenase 1 (Homo sapiens, UniProt P28845) (P28845 whole entry): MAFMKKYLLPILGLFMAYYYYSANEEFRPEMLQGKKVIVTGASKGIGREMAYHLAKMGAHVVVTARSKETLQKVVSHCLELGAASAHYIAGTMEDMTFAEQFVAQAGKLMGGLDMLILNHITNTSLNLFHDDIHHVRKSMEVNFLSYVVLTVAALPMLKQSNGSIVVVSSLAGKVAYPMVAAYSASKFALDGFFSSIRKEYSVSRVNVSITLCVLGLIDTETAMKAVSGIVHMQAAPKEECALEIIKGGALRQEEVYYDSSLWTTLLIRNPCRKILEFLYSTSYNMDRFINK

Compound: O=c1[nH]cc(F)c(=O)[nH]1 [FLUOROURACIL]
- Activity (HCT-116 [1]): 30.1%
- Activity (HCT-116 [2]): 13.8%
- Activity (HCT-116 [3]): 5.7%
- Activity (HCT-116 [4]): 49.4%
- Activity (HCT-116 [5]): 5%
- Activity (HCT-116 [6]): 20.2%
- Activity (HCT-116 [7]): 27.4%
- Activity (HCT-116 [8]): 28.8%

Compound: CC(=O)O[C@@H]1CC2[C@@]3(C)CC[C@H](O)C(C)(C)C3CC[C@@]2(C)[C@]2(C)C(=O)C=CC12 (stereo not given in full)
- IC50 [9]: 34 nM

Compound: CC1(C)CCC[C@](C)(C2CC[C@]3(C)C2[C@H](O)CC2[C@@]4(C)CC[C@H](OC(=O)c5cc(O)c(O)c(O)c5)C(C)(C)C4CC[C@]23C)O1 (stereo not given in full)
- IC50 (HepG2 2.2.15): 7.27 µM

Compound: CC1(C)CCC[C@@](C)(C2CC[C@]3(C)C2[C@H](O)CC2[C@@]4(C)CC[C@H](O)C(C)(C)C4CC[C@]23C)O1 (stereo not given in full)
- Activity (HCT-116 [10]): 5.7%
- IC50 (HCT-116 [11]): 11.8 µM
- Activity (HCT-116 [12]): 48%
- Activity (HCT-116 [13]): 19%
- Activity (HCT-116 [14]): 27.8%
- Activity (HCT-116 [15]): 35.2%
- IC50 (HCT-116 [16]): 12.1 µM
- IC50 (SW480 [17]): 5 µM
- Activity (HCT-116 [18]): 30.2%
- IC50 (SW480 [19]): 4.4 µM
- Activity (HCT-116 [20]): 40.7%
- Activity (HCT-116 [21]): 14.1%

Compound: CC(C)(O)[C@@H]1CC[C@@](C)([C@H]2CC[C@]3(C)C2[C@H](O)CC2[C@@]4(C)CC[C@H](OC(=O)C5CCNCC5)C(C)(C)C4CC[C@]23C)O1 (stereo not given in full)
- MIC (Staphylococcus aureus): 168 µg/mL (≈ 286 µM)
- MIC (Bacillus subtilis): 2 µg/mL (≈ 3.4 µM)

Compound: COc1cc(/C=C2/C[C@@]3(C)C(CC[C@]4(C)C3C[C@@H](O)C3C([C@@]5(C)CCCC(C)(C)O5)CC[C@]34C)C(C)(C)C2=O)cc(OC)c1OC (stereo not given in full)
- IC50 (PC-3): 45.6 µM

Compound: CC(=O)O[C@H]1CC[C@@]2(C)C(CC[C@]3(C)C2C[C@@H](O)C2C([C@@](C)(O)CCC=C(C)C)CC[C@]23C)C1(C)C (stereo not given in full)
- IC50 (HCT-116 [16]): 43.3 µM
- IC50 (SW480 [17]): 30 µM
- IC50 (MCF7): 37.3 µM

Compound: CC1(C)CCC[C@](C)(C2CC[C@]3(C)C2[C@H](O)CC2[C@@]4(C)CC[C@H](OC(=O)c5ccccc5O)C(C)(C)C4CC[C@]23C)O1 (stereo not given in full)
- IC50 (HepG2 2.2.15): 7.27 µM

Compound: CC1(C)CCC[C@](C)(C2CC[C@]3(C)C2[C@H](O)CC2[C@@]4(C)CC[C@H](OC(=O)CCC(=O)O)C(C)(C)C4CC[C@]23C)O1 (stereo not given in full)
- IC50 (HepG2 2.2.15): 7.27 µM

Compound: CC1(C)CCC[C@](C)(C2CC[C@]3(C)C2[C@H](O)CC2[C@@]4(C)CC[C@H](OC(=O)CCCC(=O)O)C(C)(C)C4CC[C@]23C)O1 (stereo not given in full)
- IC50 (HepG2 2.2.15): 7.27 µM

Compound: CC1(C)CCC[C@](C)(C2CC[C@]3(C)C2[C@H](O)CC2[C@@]4(C)C/C(=C/c5cccs5)C(=O)C(C)(C)C4CC[C@]23C)O1 (stereo not given in full)
- IC50 (LNCaP): < 38.9 µM
- IC50 (PC-3): 47.3 µM

Compound: CO[C@H]1CC(=O)[C@]2(C)C1[C@H](OC(C)=O)CC1[C@@]3(C)CC[C@H](O)C(C)(C)C3CC[C@]12C (stereo not given in full)
- IC50 [9]: 44 nM
- IC50 [22]: 410 nM
